In ChEMBL document CHEMBL1155084 (J Med Chem, 2008):

Columns and labels:
Blood [1] = assay: Inhibition of TNFalpha release in human whole blood; type: functional, tissue-based
Blood [2] = assay: Inhibition of IL1-beta release in human whole blood; type: functional, tissue-based
[3] = Inhibition of p38 MAPK
Homo sapiens [4] = organism: Homo sapiens; assay: Inhibition of human CAMK2 at 10 uM
[5] = target: T1, Mitogen-activated protein kinase 14 (Homo sapiens, UniProt Q16539); details: at 10 µM
Description: Inhibition of human SAPK2a/p38-alpha at 10 uM

[6] = target: RAC-alpha serine/threonine-protein kinase (Homo sapiens) (UniProt P31749); assay: Inhibition of human PKBalpha at 10 uM
RAC-alpha serine/threonine-protein kinase (Homo sapiens), sequence (P31749 whole entry): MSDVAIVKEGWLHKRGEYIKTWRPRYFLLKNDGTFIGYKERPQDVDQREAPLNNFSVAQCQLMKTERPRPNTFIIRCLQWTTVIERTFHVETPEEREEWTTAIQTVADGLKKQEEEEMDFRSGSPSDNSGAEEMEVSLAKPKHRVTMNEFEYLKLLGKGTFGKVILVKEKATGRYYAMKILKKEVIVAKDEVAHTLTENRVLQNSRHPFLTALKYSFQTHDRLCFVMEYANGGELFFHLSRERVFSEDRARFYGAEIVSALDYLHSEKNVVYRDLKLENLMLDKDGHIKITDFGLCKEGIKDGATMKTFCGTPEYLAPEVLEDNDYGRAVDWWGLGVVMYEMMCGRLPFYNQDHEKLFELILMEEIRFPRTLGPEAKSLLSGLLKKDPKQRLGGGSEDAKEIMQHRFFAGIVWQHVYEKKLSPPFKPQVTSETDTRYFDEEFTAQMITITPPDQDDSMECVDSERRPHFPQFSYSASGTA

[7] = target: Tyrosine-protein kinase Lck (Homo sapiens) (UniProt P06239); assay: Inhibition of human LCK at 10 uM
CYP2D6 = CYP2D6 (Homo sapiens, UniProt P10635); assay: Inhibition of CYP2D6 at 10 uM; type: ADME
Homo sapiens [8] = organism: Homo sapiens; assay: Inhibition of human PKA at 10 uM
[9] = target: RAF proto-oncogene serine/threonine-protein kinase (Homo sapiens) (UniProt P04049); assay: Inhibition of human c-RAF at 10 uM
RAF proto-oncogene serine/threonine-protein kinase (Homo sapiens), sequence (P04049 whole entry): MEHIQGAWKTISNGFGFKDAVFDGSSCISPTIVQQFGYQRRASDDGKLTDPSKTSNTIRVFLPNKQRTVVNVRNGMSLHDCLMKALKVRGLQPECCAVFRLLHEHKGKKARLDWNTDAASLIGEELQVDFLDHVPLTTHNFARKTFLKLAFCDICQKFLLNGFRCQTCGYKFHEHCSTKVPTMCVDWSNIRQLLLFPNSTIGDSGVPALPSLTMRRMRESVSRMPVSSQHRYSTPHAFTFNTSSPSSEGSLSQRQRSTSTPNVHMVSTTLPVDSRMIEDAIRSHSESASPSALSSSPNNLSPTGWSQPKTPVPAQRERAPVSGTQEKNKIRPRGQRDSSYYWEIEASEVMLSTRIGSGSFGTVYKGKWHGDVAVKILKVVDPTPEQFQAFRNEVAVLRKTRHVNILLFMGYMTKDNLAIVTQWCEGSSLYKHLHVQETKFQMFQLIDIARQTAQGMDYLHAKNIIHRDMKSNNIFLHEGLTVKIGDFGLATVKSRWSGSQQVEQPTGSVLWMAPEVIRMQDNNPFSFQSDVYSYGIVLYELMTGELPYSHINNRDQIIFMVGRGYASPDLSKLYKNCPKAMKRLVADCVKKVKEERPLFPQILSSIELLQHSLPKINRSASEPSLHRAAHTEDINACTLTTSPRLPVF

[10] = target: Glycogen synthase kinase-3 beta (Homo sapiens) (UniProt P49841); assay: Inhibition of human GSK3-beta at 10 uM
CYP1A2 = target: T2, CYP1A2 (Homo sapiens, UniProt P05177); assay: Inhibition of CYP1A2 at 10 uM; type: ADME
T2 sequence (P05177 whole entry): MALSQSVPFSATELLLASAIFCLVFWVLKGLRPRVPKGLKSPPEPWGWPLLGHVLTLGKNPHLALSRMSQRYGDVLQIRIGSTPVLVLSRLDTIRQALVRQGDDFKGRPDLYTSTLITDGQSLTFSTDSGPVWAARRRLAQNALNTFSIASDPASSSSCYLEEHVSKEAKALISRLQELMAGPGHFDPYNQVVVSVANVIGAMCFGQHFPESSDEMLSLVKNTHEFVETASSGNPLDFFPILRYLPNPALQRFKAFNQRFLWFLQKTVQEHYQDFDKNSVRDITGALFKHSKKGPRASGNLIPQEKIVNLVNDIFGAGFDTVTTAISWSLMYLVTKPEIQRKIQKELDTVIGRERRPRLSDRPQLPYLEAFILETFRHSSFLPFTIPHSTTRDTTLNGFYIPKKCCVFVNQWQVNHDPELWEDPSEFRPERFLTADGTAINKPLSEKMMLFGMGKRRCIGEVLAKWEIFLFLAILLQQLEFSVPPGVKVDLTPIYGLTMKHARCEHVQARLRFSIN

[11] = target: Mitogen-activated protein kinase 9 (Homo sapiens) (UniProt P45984); assay: Inhibition of human JNK2alpha2 at 10 uM
Mitogen-activated protein kinase 9 (Homo sapiens), sequence (P45984 whole entry, looked up): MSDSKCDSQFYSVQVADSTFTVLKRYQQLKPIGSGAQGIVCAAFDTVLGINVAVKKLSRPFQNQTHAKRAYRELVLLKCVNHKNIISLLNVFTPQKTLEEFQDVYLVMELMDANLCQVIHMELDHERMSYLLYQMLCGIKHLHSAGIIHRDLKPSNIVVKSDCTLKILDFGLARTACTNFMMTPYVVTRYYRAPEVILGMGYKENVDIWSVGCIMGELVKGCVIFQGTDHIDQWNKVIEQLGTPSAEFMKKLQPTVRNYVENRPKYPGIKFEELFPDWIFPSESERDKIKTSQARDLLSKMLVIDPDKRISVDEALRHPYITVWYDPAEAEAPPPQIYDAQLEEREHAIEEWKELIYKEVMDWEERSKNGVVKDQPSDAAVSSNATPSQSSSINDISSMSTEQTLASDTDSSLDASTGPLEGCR

Homo sapiens [12] = organism: Homo sapiens; assay: Inhibition of human JNK1-alpha-1/SAPK1c at 10 uM
[13] = target: Mitogen-activated protein kinase 3 (Homo sapiens) (UniProt P27361); assay: Inhibition of human ERK1 at 10 uM
[14] = target: Dual specificity mitogen-activated protein kinase kinase 1 (Homo sapiens) (UniProt Q02750); assay: Inhibition of human MEK1 at 10 uM
Dual specificity mitogen-activated protein kinase kinase 1 (Homo sapiens), sequence (Q02750 whole entry): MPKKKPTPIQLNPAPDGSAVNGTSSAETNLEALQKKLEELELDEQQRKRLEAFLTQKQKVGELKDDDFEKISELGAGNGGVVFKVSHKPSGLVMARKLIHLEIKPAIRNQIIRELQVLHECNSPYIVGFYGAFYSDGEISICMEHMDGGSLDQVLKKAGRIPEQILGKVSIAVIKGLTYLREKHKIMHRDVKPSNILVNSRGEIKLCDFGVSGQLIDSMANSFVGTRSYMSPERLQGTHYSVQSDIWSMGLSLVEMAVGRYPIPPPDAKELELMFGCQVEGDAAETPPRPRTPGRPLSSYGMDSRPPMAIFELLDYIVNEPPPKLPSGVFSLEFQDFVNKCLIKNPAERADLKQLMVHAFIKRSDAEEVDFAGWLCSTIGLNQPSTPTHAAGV

[15] = target: Mitogen-activated protein kinase 1 (Homo sapiens) (UniProt P28482); assay: Inhibition of human MAPK2/ERK2 at 10 uM
CYP3A4 = CYP3A4 (Homo sapiens, UniProt P08684); assay: Inhibition of CYP3A4 at 10 uM; type: ADME
[16] = target: Mitogen-activated protein kinase 10 (Homo sapiens) (UniProt P53779); assay: Inhibition of human JNK3 at 10 uM
[17] = target: T1, Mitogen-activated protein kinase 14; assay: Inhibition of p38alpha
[18] = target: Protein kinase C alpha type (Homo sapiens) (UniProt P17252); assay: Inhibition of human PKCalpha at 10 uM
CYP2C9 = CYP2C9 (Homo sapiens, UniProt P11712); assay: Inhibition of CYP2C9 at 10 uM; type: ADME
CYP2C9, sequence (P11712 whole entry): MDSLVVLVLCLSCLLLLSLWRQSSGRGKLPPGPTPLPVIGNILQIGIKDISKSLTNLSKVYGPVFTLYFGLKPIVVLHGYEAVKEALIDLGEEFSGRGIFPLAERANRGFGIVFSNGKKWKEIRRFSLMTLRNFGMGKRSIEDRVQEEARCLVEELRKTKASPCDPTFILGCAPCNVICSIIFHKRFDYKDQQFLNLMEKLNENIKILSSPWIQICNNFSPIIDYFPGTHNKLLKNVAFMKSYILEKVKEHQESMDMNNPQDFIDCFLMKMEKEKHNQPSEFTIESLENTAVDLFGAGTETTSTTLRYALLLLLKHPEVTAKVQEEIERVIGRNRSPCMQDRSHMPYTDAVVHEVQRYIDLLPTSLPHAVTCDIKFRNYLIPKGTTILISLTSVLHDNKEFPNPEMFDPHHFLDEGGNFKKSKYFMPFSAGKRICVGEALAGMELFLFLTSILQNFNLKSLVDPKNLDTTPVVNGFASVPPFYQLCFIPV

[19] = target: Rho-associated protein kinase 2 (Homo sapiens) (UniProt O75116); assay: Inhibition of human ROCK2 at 10 uM
Rho-associated protein kinase 2 (Homo sapiens), sequence (O75116 whole entry, looked up): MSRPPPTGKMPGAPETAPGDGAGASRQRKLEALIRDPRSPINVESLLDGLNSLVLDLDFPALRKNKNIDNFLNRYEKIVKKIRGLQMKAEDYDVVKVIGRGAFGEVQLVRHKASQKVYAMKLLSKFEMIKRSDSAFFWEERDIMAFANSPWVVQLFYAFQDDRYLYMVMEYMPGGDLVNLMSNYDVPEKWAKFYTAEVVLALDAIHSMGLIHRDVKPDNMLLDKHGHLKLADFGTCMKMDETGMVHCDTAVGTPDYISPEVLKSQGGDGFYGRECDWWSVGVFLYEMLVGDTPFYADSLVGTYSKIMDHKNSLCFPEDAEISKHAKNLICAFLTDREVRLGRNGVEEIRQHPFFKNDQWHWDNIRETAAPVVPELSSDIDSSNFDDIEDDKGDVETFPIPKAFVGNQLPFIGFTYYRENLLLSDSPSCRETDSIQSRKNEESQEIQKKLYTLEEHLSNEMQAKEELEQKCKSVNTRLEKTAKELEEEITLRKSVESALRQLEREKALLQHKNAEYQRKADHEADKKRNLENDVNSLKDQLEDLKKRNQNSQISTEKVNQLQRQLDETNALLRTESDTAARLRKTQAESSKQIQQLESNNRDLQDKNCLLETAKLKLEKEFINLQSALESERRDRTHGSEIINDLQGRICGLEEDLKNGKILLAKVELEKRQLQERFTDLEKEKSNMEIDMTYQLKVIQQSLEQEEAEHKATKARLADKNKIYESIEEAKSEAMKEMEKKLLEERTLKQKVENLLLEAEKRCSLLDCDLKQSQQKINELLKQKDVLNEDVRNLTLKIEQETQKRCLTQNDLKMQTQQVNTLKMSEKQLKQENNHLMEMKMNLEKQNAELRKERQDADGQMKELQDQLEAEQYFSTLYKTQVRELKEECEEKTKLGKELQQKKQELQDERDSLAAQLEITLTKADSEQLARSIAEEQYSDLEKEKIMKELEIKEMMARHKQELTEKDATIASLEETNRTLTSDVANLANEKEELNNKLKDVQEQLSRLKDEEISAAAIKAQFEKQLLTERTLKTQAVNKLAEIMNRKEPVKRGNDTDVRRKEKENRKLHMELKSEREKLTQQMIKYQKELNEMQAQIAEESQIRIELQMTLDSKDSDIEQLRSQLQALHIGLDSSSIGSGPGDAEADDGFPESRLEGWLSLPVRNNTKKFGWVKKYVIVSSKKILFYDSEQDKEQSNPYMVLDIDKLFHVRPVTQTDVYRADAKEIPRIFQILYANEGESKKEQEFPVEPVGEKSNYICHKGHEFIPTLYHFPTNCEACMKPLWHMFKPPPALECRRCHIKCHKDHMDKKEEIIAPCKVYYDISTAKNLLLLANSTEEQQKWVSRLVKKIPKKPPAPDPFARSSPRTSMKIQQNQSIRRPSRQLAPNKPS

CYP2C19 = CYP2C19 (Homo sapiens, UniProt P33261); assay: Inhibition of CYP2C19 at 10 uM; type: ADME
CYP2C19, sequence (P33261 whole entry): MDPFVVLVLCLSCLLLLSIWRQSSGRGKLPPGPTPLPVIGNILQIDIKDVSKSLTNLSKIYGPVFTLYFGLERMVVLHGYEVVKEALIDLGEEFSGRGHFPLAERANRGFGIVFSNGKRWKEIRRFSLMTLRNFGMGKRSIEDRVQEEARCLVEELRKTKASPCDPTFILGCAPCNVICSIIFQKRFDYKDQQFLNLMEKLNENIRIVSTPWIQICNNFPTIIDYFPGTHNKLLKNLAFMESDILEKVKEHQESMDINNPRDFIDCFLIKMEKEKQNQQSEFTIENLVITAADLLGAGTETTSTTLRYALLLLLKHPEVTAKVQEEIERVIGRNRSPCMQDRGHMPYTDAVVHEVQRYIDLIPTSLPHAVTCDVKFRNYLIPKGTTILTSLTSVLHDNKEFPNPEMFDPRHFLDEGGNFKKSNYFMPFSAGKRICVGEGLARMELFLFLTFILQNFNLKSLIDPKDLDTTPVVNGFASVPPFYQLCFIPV

SMILES | IC50 (Blood [1]) [µM] | IC50 (Blood [2]) [µM] | IC50 [3] [µM] | inhibition (Homo sapiens [4]) [%] | inhibition [5] [%] | inhibition [6] [%] | inhibition [7] [%] | inhibition at 10 µM (CYP2D6) [%] | inhibition (Homo sapiens [8]) [%] | inhibition [9] [%] | inhibition [10] [%] | inhibition at 10 µM (CYP1A2) [%] | inhibition [11] [%] | inhibition (Homo sapiens [12]) [%] | inhibition [13] [%] | inhibition [14] [%] | inhibition [15] [%] | inhibition at 10 µM (CYP3A4) [%] | inhibition [16] [%] | IC50 [17] [µM] | also measured
C[S+]([O-])c1ccc(CSc2nc(-c3ccc(F)cc3)c(-c3ccncc3)[nH]2)cc1 (stereo not drawn) | 1.1 | 0.38 | 0.004 |  |  |  |  |  |  |  |  |  |  |  |  |  |  |  |  |  | 
CSc1nc(-c2ccc(F)cc2)c(-c2ccncc2)[nH]1 | 8.65 | 0.044 | 0.63 |  |  |  |  |  |  |  |  |  |  |  |  |  |  |  |  |  | 
CSc1nc(-c2ccc(F)cc2)c(-c2ccnc(NCCc3cccs3)c2)[nH]1 | 14.5 | 23.5 |  | 0 | 99 | 1 | 28 | 88 | 4 | 53 | 1 | 83 | 90 | 72 | 46 | 1 | 31 | 89 | 99 | 0.023 | inhibition [18]: 0%; inhibition at 10 µM (CYP2C9): 93%; inhibition [19]: 0%; inhibition at 10 µM (CYP2C19): 94%
CSc1nc(-c2ccc(F)cc2)c(-c2ccnc(NC(C)c3ccccc3)c2)[nH]1 (stereo not drawn) | 4.33 | 4.33 | 0.38 |  |  |  |  |  |  |  |  |  |  |  |  |  |  |  |  |  | 
CSc1nc(-c2ccc(F)cc2)c(-c2ccnc(NC(C)c3ccccc3)c2)n1C (stereo not drawn) | 3 | 4.1 | 0.22 |  |  |  |  |  |  |  |  |  |  |  |  |  |  |  |  |  | 
CSc1nc(-c2ccc(F)cc2)c(-c2ccnc(NC(C)CCCC(C)C)c2)[nH]1 (stereo not drawn) | 3.99 | 7.56 |  | 0 | 94 | 6 | 47 | 66 | 0 | 7 | 0 | 23 | 91 | 86 | 28 | 2 | 6 | 71 | 99 | 0.02 | inhibition [18]: 0%; inhibition at 10 µM (CYP2C9): 76%; inhibition [19]: 0%; inhibition at 10 µM (CYP2C19): 84%
Clc1ccc(-c2nc(-c3ccccc3)[nH]c2-c2ccncc2)cc1 |  |  | 0.048 |  |  |  |  |  |  |  |  |  |  |  |  |  |  |  |  |  | 
CSc1nc(-c2ccc(F)cc2)c(-c2ccnc(NC(C)CCc3ccccc3)c2)[nH]1 (stereo not drawn) | 0.35 | 2.37 |  | 0 | 97 | 5 | 30 | 78 | 0 | 19 | 0 | 38 | 94 | 88 | 32 | 3 | 17 | 95 | 99 | 0.013 | inhibition [18]: 0%; inhibition at 10 µM (CYP2C9): 88%; inhibition [19]: 0%; inhibition at 10 µM (CYP2C19): 89%
FC(F)(F)c1cccc(-c2nc(-c3ccccc3)[nH]c2-c2ccncc2)c1 |  |  | 0.086 |  |  |  |  |  |  |  |  |  |  |  |  |  |  |  |  |  | 
